The values that follow come from patent publication US10065990B2, “Cyclic peptide compound, and preparation method, pharmaceutical composition and use thereof” (HANGZHOU GUANYU BIO-MEDICAL CO., LTD, priority 2013, dated 2018).

Where two headings read alike, the source gives them in different places.

In experiment [1] the test system is MDA-MB-231 (breast cancer cells). The experiment is described as follows: MTT cancer cell growth inhibition. Format: cell-based. The note with it: Homo sapiens, MDA-MB-231, 72 h, read-out: GI50 MDA-MB-231, MTT, 72 hours incubation, MDA-MB-231 cells. The procedure, abridged:
(§1)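 Tumour cells in 10% FBS-supplemented DMEM or RPMI 1640 are plated at 1500 per well, dosed next day with compound (10^−5 through 10^−10 M, final) and kept 72 h. MTT is added for 4 h; dissolved formazan is measured at 570 nm and GI50 determined.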

The subject of experiment [2] is MCF-7 (human breast cancer cells). The experiment is described as follows: MTT cancer cell growth inhibition. It is filed as cell-based. To be noted: Homo sapiens, MCF7, 72 h, 72 hours incubation, read-out: GI50 MCF. The gist of the method:
as §1

Experiment [3] deals with lncap (prostate cancer cells). The experiment is described as follows: MTT cancer cell growth inhibition. It is filed as cell-based. The note with it: Homo sapiens, LNCaP, 72 h, MTT, 72 hours incubation, read-out: GI50 lnca. The procedure, abridged: as §1
Experiment [4] relates to HCC827 (human non-small cell lung cancer cells). In words: MTT cancer cell growth inhibition. Format: cell-based. To be noted: Homo sapiens, HCC827, 72 h, MTT, 72 hours incubation, HCC827 cells; read-out: GI50 HCC827. The procedure, abridged:
as §1

In experiment [5] the test system is MOLT-4 (human acute lymphoblastic leukemia cells). The experiment is described as follows: MTT cancer cell growth inhibition. Format: cell-based. The note with it: Homo sapiens, MOLT-4, 72 h, MTT, 72 hours incubation, read-out: GI50 Mol. The procedure, abridged: as §1
Experiment [6] relates to KBM-5 (human chronic myelogenous leukemia). In words: MTT cancer cell growth inhibition. Format: cell-based. The note with it: Homo sapiens, KBM5, 72 h, MTT, 72 hours incubation, KBM-5 cells; read-out: GI50 KBM-5. The gist of the method: as §1
For experiment [7], the system named is Huh-7 (human hepatoma cells). In words: MTT cancer cell growth inhibition. It is filed as cell-based. To be noted: Homo sapiens, Huh-7, 72 h, MTT, 72 hours incubation, Huh-7 cells; read-out: GI50 Huh-7. The procedure, abridged: as §1
The subject of experiment [8] is K562 (human leukemia cells). The experiment is described as follows: MTT cancer cell growth inhibition. To be noted: Homo sapiens, K562, 72 h, MTT, 72 hours incubation, K562 cells; read-out: GI50 K562. Format: cell-based. The procedure, abridged: as §1
Experiment [9] deals with HT1080 (human fibrosarcoma cells). The experiment is described as follows: MTT cancer cell growth inhibition. Format: cell-based. The note with it: Homo sapiens, HT-1080, 72 h, MTT, 72 hours incubation, read-out: GI50 HT1. The procedure, abridged:
as §1

In experiment [10] the test system is U937 (human leukemia cells). In words: MTT cancer cell growth inhibition. Format: cell-based. The note with it: Homo sapiens, U-937, 72 h, MTT, 72 hours incubation, read-out: GI50 U93. The procedure, abridged:
as §1

Experiment [11] has as its system SGC-7901 (human gastric cancer cells). The experiment is described as follows: MTT cancer cell growth inhibition. To be noted: Homo sapiens, SGC-7901, 72 h, MTT, 72 hours incubation, SGC-7901 cells; read-out: GI50 SGC-7901. Format: cell-based. The gist of the method: as §1
The subject of experiment [12] is Hela (human cervical cancer cells). The experiment is described as follows: MTT cancer cell growth inhibition. It is filed as cell-based. To be noted: Homo sapiens, HeLa, 72 h, MTT, 72 hours incubation, read-out: GI50 Hela. The gist of the method: as §1
In experiment [13] the test system is KBM5-T315I (human chronic myelogenous leukemia). The experiment is described as follows: MTT cancer cell growth inhibition. It is filed as cell-based. To be noted: Homo sapiens, 72 h, MTT, 72 hours incubation, KBM5-T315I cells; read-out: GI50 KBM5-T315I. The procedure, abridged:
as §1

The subject of experiment [14] is BGC-823 (human gastric cancer cells). The experiment is described as follows: MTT cancer cell growth inhibition. The note with it: Homo sapiens, BGC-823, 72 h, MTT, 72 hours incubation, read-out: GI50 BG. Format: cell-based. The gist of the method: as §1
Experiment [15] concerns DU145 (human prostate cancer cells). The experiment is described as follows: MTT cancer cell growth inhibition. It is filed as cell-based. The note with it: Homo sapiens, DU-145, 72 h, MTT, 72 hours incubation, read-out: GI50 Du1. The gist of the method:
as §1

Experiment [16] relates to H1975 (non-small cell lung adenocarcinoma). In words: MTT cancer cell growth inhibition. Format: cell-based. To be noted: Homo sapiens, NCI-H1975, 72 h, MTT, 72 hours incubation, H1975 cells; read-out: GI50 H1975. The gist of the method:
as §1

For experiment [17], the system named is Bel-7402 (human hepatoma cells). In words: MTT cancer cell growth inhibition. Format: cell-based. To be noted: Homo sapiens, Bel-7402, 72 h, MTT, 72 hours incubation, Bel-7402 cells; read-out: GI50 Bel-7402. The gist of the method:
as §1

For experiment [18], the system named is N-87 (human gastric cancer cells). The experiment is described as follows: MTT cancer cell growth inhibition. Format: cell-based. The note with it: Homo sapiens, 72 h, MTT, 72 hours incubation, N-87 cells; read-out: GI50 N-87. The gist of the method: as §1
In experiment [19] the test system is A549 (human lung cancer cells). In words: MTT cancer cell growth inhibition. It is filed as cell-based. The note with it: Homo sapiens, A549, 72 h, MTT, 72 hours incubation, read-out: GI50 A54. The gist of the method: as §1
Experiment [20] relates to PANC-1 (Pac-1, human pancreatic cancer cells). In words: MTT cancer cell growth inhibition. It is filed as cell-based. To be noted: Homo sapiens, PANC-1, 72 h, MTT, 72 hours incubation, read-out: GI50 PAN. The procedure, abridged:
as §1

A further experiment addresses T1, HDAC7 (Homo sapiens, UniProt Q8WUI4).
T1 sequence (Q8WUI4 1-952): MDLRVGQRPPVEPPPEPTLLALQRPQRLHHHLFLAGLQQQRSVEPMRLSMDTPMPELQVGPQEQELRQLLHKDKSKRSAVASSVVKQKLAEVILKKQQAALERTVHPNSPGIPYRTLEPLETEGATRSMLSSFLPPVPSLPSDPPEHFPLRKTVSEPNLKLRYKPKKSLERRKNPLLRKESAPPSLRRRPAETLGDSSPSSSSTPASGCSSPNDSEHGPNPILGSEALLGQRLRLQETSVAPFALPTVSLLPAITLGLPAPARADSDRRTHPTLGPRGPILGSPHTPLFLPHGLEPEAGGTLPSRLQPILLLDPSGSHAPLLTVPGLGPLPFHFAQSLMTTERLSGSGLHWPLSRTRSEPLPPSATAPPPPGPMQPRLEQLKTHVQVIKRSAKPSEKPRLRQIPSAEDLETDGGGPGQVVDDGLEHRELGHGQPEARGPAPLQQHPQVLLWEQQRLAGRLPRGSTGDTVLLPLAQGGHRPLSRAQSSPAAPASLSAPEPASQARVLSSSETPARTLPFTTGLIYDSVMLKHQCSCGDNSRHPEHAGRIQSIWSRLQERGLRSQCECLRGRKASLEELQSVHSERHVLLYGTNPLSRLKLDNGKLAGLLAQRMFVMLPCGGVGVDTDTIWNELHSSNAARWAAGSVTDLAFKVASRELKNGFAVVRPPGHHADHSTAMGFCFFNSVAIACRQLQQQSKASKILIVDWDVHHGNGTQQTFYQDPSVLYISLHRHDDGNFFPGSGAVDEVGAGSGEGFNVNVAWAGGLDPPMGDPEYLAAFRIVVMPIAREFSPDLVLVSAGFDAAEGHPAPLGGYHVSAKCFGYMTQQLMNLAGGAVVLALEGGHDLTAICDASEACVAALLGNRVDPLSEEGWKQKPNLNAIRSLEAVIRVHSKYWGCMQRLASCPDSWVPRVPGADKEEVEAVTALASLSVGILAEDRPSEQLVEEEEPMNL
The experiment is described as follows: HDAC biochemical activity measurement (fluorescent substrate deacetylation).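 Also: fluorogenic deacetylation assay using acetyl-lysine substrate at 20 µM, enzyme and compound incubated 30 min at 37 °C, then developer added, fluorescence read at 360/460 nm.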 To be noted: HDAC7; 37° C. 30 minutes.

As a reminder, the GI50 is the concentration giving 50% growth inhibition. With `C/C=C1\NC(=O)c2ccc(SCCC)c(n2)CNC(=O)C[C@@H](/C=C/CCSC(=O)CCCCCCC)OC(=O)[C@H](CC)NC1=O` [Compound 176], the GI50 in [1] came to 32 nM; in experiment [2] (MCF-7 cells) it was 10 nM; in experiment [3] (lncap cells) it was 30 nM; in experiment [4] it was 38 nM; in experiment [5] (MOLT-4 cells), 50 nM; in [6], 34 nM. Also, the GI50 turned out to be 31 nM in [7]; 21 nM in experiment [8]; 30 nM in experiment [9] (HT1080 cells); 10 nM in experiment [10] (U937 cells); 31 nM in experiment [11]; 50 nM in [12] (Hela cells). Further, the GI50 in [13] was determined as 38 nM; in [14] (BGC-823 cells) it was 20 nM; in experiment [15] (DU145 cells), 50 nM; in experiment [16], 31 nM; in [17] it was 31 nM; in [18], 28 nM. In addition, the GI50 in experiment [19] (A549 cells) worked out at 80 nM; in experiment [20] (PANC-1 cells), 60 nM. The “IC50 HDAC7” value against HDAC7 was “no activity”.
For `C/C=C1\NC(=O)c2ccc(SC)c(n2)CNC(=O)C[C@@H](/C=C/CCSC(=O)CCC)OC(=O)[C@H](C(C)C)NC1=O` [Compound 161], the concentration for 50% growth inhibition (GI50) in [1] was determined as 46 nM; in [2] (MCF-7 cells) it was 70 nM; in [3] (lncap cells), 70 nM; in [4], 65 nM; in experiment [5] (MOLT-4 cells), 30 nM; in [6], 13 nM. Moreover, the GI50 in experiment [7] turned out to be 79 nM; in experiment [8], 31 nM; in experiment [9] (HT1080 cells), 50 nM; in experiment [10] (U937 cells), 60 nM; in experiment [11], 91 nM; in experiment [12] (Hela cells), 10 nM. Also, the GI50 was found to be 12 nM in experiment [13]; 20 nM in experiment [14] (BGC-823 cells); 20 nM in experiment [15] (DU145 cells); 57 nM in experiment [16]; 47 nM in [17]; 37 nM in experiment [18]. Moreover, the values for the GI50 in experiment [19] (A549 cells) and in [20] (PANC-1 cells) were 80 nM and 10 nM, respectively. Further, the “IC50 HDAC7” value at HDAC7 is “no activity”.
As for `C/C=C1\NC(=O)c2cc(F)cc(n2)CNC(=O)C[C@@H](/C=C/CCS)OC(=O)[C@H](CCCCNC(=O)OCC2c3ccccc3-c3ccccc32)NC1=O` [Compound 121], the GI50 in experiment [1] worked out at 75 nM; in [2] it was 20 nM; in experiment [3], 110 nM; in experiment [4], 42 nM; in experiment [5] it was 30 nM; in experiment [6], 46 nM. Besides, the GI50 was 45 nM in experiment [7]; 38 nM in experiment [8]; 70 nM in [9]; 60 nM in [10]; 33 nM in [11]; 50 nM in [12]. Besides, the GI50 in [13] was determined as 23 nM; in experiment [14], 190 nM; in experiment [15] it was 30 nM; in experiment [16] it was 28 nM; in [17] it was 26 nM; in experiment [18] it was 23 nM. Moreover, the GI50 in experiment [19] was 210 nM; in [20], 70 nM. For the same compound, the “IC50 HDAC7” value against HDAC7 is listed as “no activity”.
Consider `C/C=C1\NC(=O)c2nc(ccc2SCC)CNC(=O)C[C@@H](/C=C/CCSC(=O)CCCCCCC)OC(=O)[C@H](C(C)C)NC1=O` [Compound 247], for which the GI50 in experiment [1] came out at 38 nM; in experiment [2] (MCF-7 cells), 50 nM; in experiment [3] (lncap cells) it was 20 nM; in experiment [4], 41 nM; in [5] (MOLT-4 cells), 30 nM; in experiment [6], 32 nM. Also, the 50% growth inhibitory concentration (GI50) worked out at 53 nM in [7]; 33 nM in [8]; 60 nM in [9] (HT1080 cells); 70 nM in [10] (U937 cells); 65 nM in [11]; 50 nM in [12] (Hela cells). In addition, the GI50 is 45 nM in experiment [13]; 10 nM in experiment [14] (BGC-823 cells); 20 nM in experiment [15] (DU145 cells); 32 nM in experiment [16]; 95 nM in experiment [17]; 23 nM in experiment [18]. The 50% growth inhibitory concentration (GI50) came out at 60 nM in experiment [19] (A549 cells) and 50 nM in experiment [20] (PANC-1 cells). For the same compound, the “IC50 HDAC7” value against HDAC7 is recorded as “no activity”.
